Data published in publication PMC10455339, “Combining the Peptide RWQWRWQWR and an Ethanolic Extract of Bidens pilosa Enhances the Activity against Sensitive and Resistant Candida albicans and C. auris Strains” (Journal of Fungi, 2023).
Ends that are not written are not given here.

Experiments:
[1] = test system: primary culture of human foreskin fibroblasts; format: cell-based; conditions: 2 h
Experimental: The toxicity of the ethanolic extract of B. pilosa, the palindromic peptide, and their combinations was evaluated in a primary culture of human foreskin fibroblasts by the MTT (tetrazolium salt, Sigma-Aldrich) assay, with modifications. Briefly, cells were seeded in 96-well plates at a density of 1 × 10^4 cells and 100 μL per well and allowed to adhere and proliferate for 24 h RPMI medium at 37 °C and 5% CO2.
Following this, the complete medium was replaced with incomplete medium (without 10% fetal bovine serum) for an additional 24 h in order to achieve synchronization. The cells were then incubated at 37 °C and 5% CO2 for 2 h with 100 μL of B. pilosa extract (31.25–2000 µg/mL), peptide at the concentrations evaluated (3.12–200 μg/mL), and additive or synergistic combinations (C 1: 25/250 µg/mL, C 2: 50/62.5 µg/mL, C 3: 100/125 µg/mL, and C 4: 25/31.25 µg/mL). The culture medium was removed, and 100 μL of incomplete medium with 10% MTT was added and incubated at 37 °C and 5% CO2 for 4 h. […] Following a 30 min incubation at 37 °C, the absorbance at 575 nm was measured, using the BioTek ELx800 absorbance reader (Agilent, Santa Clara, USA). […] In addition, the half-maximal inhibitory concentration (IC50) was calculated by plotting viability versus log (concentration).

C. albicans SC5314 = assay: microbe, parasite or virus in culture; format: cell-based, Candida albicans; conditions: SC5314, 48 h
Experimental: For the determination of the MICs, the guidelines of the Clinical Laboratory Standards Institute (CLSI BMD-M27-A4) were used with some modifications. Serial dilutions were made, for peptides from 6.25 to 200 µg/mL and for extracts from 31.2 to 2000 µg/mL, with RPMI 1640 medium in a 96-well microdilution plate (100 µL), and then 100 µL of the adjusted inoculum (0.5–2.5 × 10^3 cells/mL) was added and incubated at 37 °C, and visual and spectrophotometric reading (595 nm) was performed at 48 h. Controls: growth control in RPMI or DMSO, control with a known antifungal: FLC, C. albicans SC5314 (1 µg/mL), C. albicans 256 (64 µg/mL), C. auris 435 (8 µg/mL), and C. auris 537 (128 µg/mL), sterility controls correspond to RPMI medium and SS. The MIC was defined as the minimum concentration of peptide or extract that inhibited 50% of growth compared to the control. To determine the minimal fungicidal concentration (MFC), from the concentrations where no growth was observed, including the controls, a subculture was made on SDA and incubated for 24 h at 37 °C. The MFC was defined as the minimum concentration of peptide or extract that eliminated 100% of the growth compared to the control (n = 3).

human red blood cells = assay: Hemolytic activity assay; format: cell-based; conditions: positive control, Tween-20 (20% v/v) in PBS
Experimental: The hemolytic activity of the ethanolic extract of B. pilosa, palindromic peptide, and their combinations was analyzed on human red blood cells. Briefly, 5 mL of peripheral blood from a healthy individual was collected in an EDTA tube and centrifuged at 2500 rpm for 7 min. The erythrocyte-rich fraction was suspended in PBS and washed twice by centrifugation. Then, 100 µL of the B. pilosa extracts (15.62–2000 µg/mL), palindromic peptide (1.56–200 µg/mL), or additive or synergistic combinations of peptide and plant extract (combination 1: 25/250 µg/mL, combination 2: 50/62.5 µg/mL, combination 3: 100/125 µg/mL, and combination 4: 25/31.25 µg/mL) was mixed with 100 µL of erythrocytes (2% hematocrit) in round-bottom 96-well plates and incubated at 37 °C for 2 h. Subsequently, the reaction was stopped by centrifuging for 10 min at 2500 rpm. To measure hemoglobin levels, 100 µL of the supernatant containing the hemoglobin released from lysed erythrocytes was transferred to a 96-well plate with a flat bottom, and the absorbance was measured at 450 nm. PBS was used as a negative control, while Tween-20 (20% v/v) in PBS was used as a positive control (n = 3).

Substance | IC50 [1] [µg/mL] | MIC (C. albicans SC5314) [µM] | Hemolysis (in words) (human red blood cells)
RWQWRWQWR-NH2 [Peptide R-1-R] | 175.9 | 67 | 
Tween-20 |  |  | completely lysed the red blood cells
